Data: ChEMBL document CHEMBL3217667, “Extended side chain analogues of 8-aminoquinolines: Synthesis and evaluation of antiprotozoal, antimicrobial, -hematin inhibition, and cytotoxic activities” (Medchemcomm, 2011)
≈ marks a conversion by molar mass, not a printed value. Calls of active or inactive are those of the source. The rule behind the calls is not given here.

Key:
Staphylococcus aureus [1] = experiment: Antibacterial activity against methicillin-resistant Staphylococcus aureus; format: functional, organism-based
[2] = Selectivity index, ratio of IC50 for African green monkey Vero cells to IC50 for chloroquine-sensitive Plasmodium falciparum D6; format: toxicity, cell-based; details: read-out: Ratio IC50
SK-OV-3 = experiment: Cytotoxicity against human SKOV3 cells by neutral red uptake assay; format: cell-based
SK-MEL = experiment: Cytotoxicity against human SK-MEL cells by neutral red uptake assay; format: cell-based
Pseudomonas aeruginosa = experiment: Antibacterial activity against Pseudomonas aeruginosa; format: functional, organism-based
Plasmodium berghei [3] = experiment: Antimalarial activity against Plasmodium berghei infected in mouse assessed as reduction in parasitemia at 100 mg/kg/day, po for 4 days measured up to day 14; format: functional
Cryptococcus neoformans = experiment: Antifungal activity against Cryptococcus neoformans by broth microdilution assay; format: functional, organism-based
Aspergillus fumigatus = experiment: Antifungal activity against Aspergillus fumigatus by broth microdilution assay; format: functional, organism-based
Leishmania donovani = experiment: Antileishmanial activity against Leishmania donovani promastigotes by Alamar Blue assay; format: functional, organism-based
Plasmodium falciparum [4] = experiment: Antimalarial activity against chloroquine-sensitive Plasmodium falciparum D6 by lactate dehydrogenase assay; format: functional, organism-based; details: Plasmodium falciparum, D6; read-out: IC50
Staphylococcus aureus [5] = experiment: Antibacterial activity against methicillin-resistant Staphylococcus aureus up to 20 ug/ml; format: functional, organism-based
[6] = tested on: Mycobacterium intracellulare; experiment: Antibacterial activity against Mycobacterium intracellulare up to 20 ug/ml; format: functional, organism-based
Plasmodium falciparum [7] = experiment: Antimalarial activity against chloroquine-resistant Plasmodium falciparum W2 by lactate dehydrogenase assay; format: functional, organism-based; details: Plasmodium falciparum, W2; read-out: IC50
Pichia kudriavzevii = experiment: Antifungal activity against Candida krusei by broth microdilution assay; format: functional, organism-based
Nakaseomyces glabratus = experiment: Antifungal activity against Candida glabrata by broth microdilution assay; format: functional, organism-based
Vero = experiment: Cytotoxicity against African green monkey Vero cells by neutral red uptake assay; format: cell-based; details: Chlorocebus sabaeus
KB = experiment: Cytotoxicity against human KB cells by neutral red uptake assay; format: cell-based
[8] = Inhibition of beta-hematin formation after 16 hrs; format: physicochemical
BT-549 = experiment: Cytotoxicity against human BT549 cells by neutral red uptake assay; format: cell-based
[9] = Selectivity index, ratio of IC50 for African green monkey Vero cells to IC50 for chloroquine-resistant Plasmodium falciparum W2; format: toxicity, cell-based; details: read-out: Ratio IC50
LLC-PK1 = experiment: Cytotoxicity against pig LLC-PK1 cells by neutral red uptake assay; format: cell-based; details: Sus scrofa
[10] = tested on: Mycobacterium intracellulare; experiment: Antibacterial activity against Mycobacterium intracellulare; format: functional, organism-based
Escherichia coli = experiment: Antibacterial activity against Escherichia coli; format: functional, organism-based
Candida albicans = experiment: Antifungal activity against Candida albicans by broth microdilution assay; format: functional, organism-based
Staphylococcus aureus [11] = experiment: Antibacterial activity against Staphylococcus aureus; format: functional, organism-based
Plasmodium berghei [12] = experiment: Antimalarial activity against Plasmodium berghei infected in mouse assessed as reduction in parasitemia at 25 mg/kg/day, po for 4 days measured up to day 60 relative to control; format: functional; design: scale not given: the % may be the effect or the level left
Plasmodium berghei [13] = experiment: Antimalarial activity against Plasmodium berghei infected in mouse assessed as reduction in parasitemia at 10 mg/kg/day, po for 4 days measured up to day 7; format: functional, organism-based
Plasmodium berghei [14] = experiment: Antimalarial activity against Plasmodium berghei infected in mouse assessed as reduction in parasitemia at 100 mg/kg/day, po for 4 days measured up to day 60 relative to control; format: functional; design: scale not given: the % may be the effect or the level left
Plasmodium berghei [15] = experiment: Antimalarial activity against Plasmodium berghei infected in mouse assessed as reduction in parasitemia at 50 mg/kg/day, po for 4 days measured up to day 60 relative to control; format: functional; design: scale not given: the % may be the effect or the level left

| SMILES | IC50 (Staphylococcus aureus [1]) | selectivity ratio [2] | IC50 (SK-OV-3) | IC50 (SK-MEL) | Activity (Pseudomonas aeruginosa) | Activity (Plasmodium berghei [3]) | IC50 (Cryptococcus neoformans) | MFC (Cryptococcus neoformans) | MIC (Cryptococcus neoformans) | Activity (Aspergillus fumigatus) | IC50 (Leishmania donovani) | IC90 (Leishmania donovani) | IC50 (Plasmodium falciparum [4]) | IC50 (Plasmodium falciparum [7]) | Activity (Pichia kudriavzevii) | Activity (Nakaseomyces glabratus) | IC50 (Vero) | IC50 (KB) | IC50 [8] | selectivity ratio [9] | other results |
| --- | --- | --- | --- | --- | --- | --- | --- | --- | --- | --- | --- | --- | --- | --- | --- | --- | --- | --- | --- | --- | --- |
| CCCCOc1c(OC)cc(NC(C)CCCNC(C)CCCNC(C)CCCNC(C)CCCN)c2nccc(CC)c12.Cl (configuration not stated) | 13.2 µg/mL | > 48.5 | > 23.8 µg/mL | > 23.8 µg/mL | inactive | inactive | 8 µg/mL | 20 µg/mL | 20 µg/mL | inactive | 3.2 µg/mL | 7 µg/mL | 0.49 µg/mL | 0.35 µg/mL | inactive | inactive | > 23.8 µg/mL | > 23.8 µg/mL | 10.7 µM | > 68 | MIC (Staphylococcus aureus [1]): 20 µg/mL; Activity (Staphylococcus aureus [5]): inactive; Activity [6]: inactive; IC50 (BT-549): > 23.8 µg/mL; IC50 (LLC-PK1): > 23.8 µg/mL; IC50 [10]: 15 µg/mL; Activity (Escherichia coli): inactive; Activity (Candida albicans): inactive; IC50 (Staphylococcus aureus [11]): 13.6 µg/mL; MBC (Staphylococcus aureus [11]): 20 µg/mL; MIC (Staphylococcus aureus [11]): 20 µg/mL |
| C[C@@H]1CC[C@H]2[C@@H](C)C(=O)O[C@@H]3O[C@@]4(C)CC[C@@H]1[C@]32OO4 [ARTEMISININ] | – | 1560 | – | – | – | – | – | – | – | – | – | – | – | – | – | – | – | – | – | 2640 | – |
| CCCCOc1c(OC)cc(NC(C)CCCNC(C)CCCNC(C)CCCN)c2nccc(CC)c12.Cl (configuration not stated) | > 20 µg/mL | > 44 | > 23.8 µg/mL | > 23.8 µg/mL | inactive | inactive | 12.1 µg/mL | 20 µg/mL | 20 µg/mL | inactive | 14 µg/mL | 32 µg/mL | 0.54 µg/mL | 0.58 µg/mL | inactive | inactive | > 23.8 µg/mL | > 23.8 µg/mL | 19.7 µM | > 41 | Activity (Staphylococcus aureus [5]): inactive; Activity [6]: inactive; IC50 (BT-549): > 23.8 µg/mL; IC50 (LLC-PK1): > 23.8 µg/mL; IC50 [10]: > 20 µg/mL; Activity (Escherichia coli): inactive; Activity (Candida albicans): inactive; IC50 (Staphylococcus aureus [11]): 12 µg/mL; MBC (Staphylococcus aureus [11]): 20 µg/mL; MIC (Staphylococcus aureus [11]): 20 µg/mL |
| N=C(N)c1ccc(OCCCCCOc2ccc(C(=N)N)cc2)cc1 [PENTAMIDINE] | – | – | – | – | – | – | – | – | – | – | – | 3.8 µg/mL (≈ 11.2 µM) | – | – | – | – | – | – | – | – | – |
| CCCCCOc1c(OC)cc(NC(C)CCCNC(C)CCCNC(C)CCCN)c2nccc(CC)c12.Cl (configuration not stated) | 9.5 µg/mL | > 41.7 | > 23.8 µg/mL | > 23.8 µg/mL | inactive | inactive | 5.5 µg/mL | 10 µg/mL | 10 µg/mL | inactive | 3.5 µg/mL | 7 µg/mL | 0.57 µg/mL | 0.48 µg/mL | inactive | inactive | > 23.8 µg/mL | > 23.8 µg/mL | 20.8 µM | > 49.5 | MBC (Staphylococcus aureus [1]): 20 µg/mL; MIC (Staphylococcus aureus [1]): 20 µg/mL; Activity [6]: inactive; IC50 (BT-549): > 23.8 µg/mL; IC50 (LLC-PK1): > 23.8 µg/mL; IC50 [10]: 16.6 µg/mL; MIC [10]: 20 µg/mL; Activity (Escherichia coli): inactive; Activity (Candida albicans): inactive; IC50 (Staphylococcus aureus [11]): 8.6 µg/mL; MBC (Staphylococcus aureus [11]): 20 µg/mL; MIC (Staphylococcus aureus [11]): 20 µg/mL |
| CCCCCOc1c(OC)cc(NC(C)CCCNC(C)CCCN)c2nccc(CC)c12.Cl (configuration not stated) | 13.4 µg/mL | > 45.7 | > 23.8 µg/mL | > 23.8 µg/mL | inactive | inactive | 5.8 µg/mL | 10 µg/mL | 10 µg/mL | inactive | 3.7 µg/mL | 7 µg/mL | 0.52 µg/mL | 0.18 µg/mL | inactive | inactive | > 23.8 µg/mL | > 23.8 µg/mL | 9.6 µM | > 132 | MBC (Staphylococcus aureus [1]): 20 µg/mL; MIC (Staphylococcus aureus [1]): 20 µg/mL; Activity [6]: inactive; IC50 (BT-549): > 23.8 µg/mL; IC50 (LLC-PK1): > 23.8 µg/mL; IC50 [10]: > 20 µg/mL; Activity (Escherichia coli): inactive; Activity (Candida albicans): inactive; IC50 (Staphylococcus aureus [11]): 13.6 µg/mL; MBC (Staphylococcus aureus [11]): 20 µg/mL; MIC (Staphylococcus aureus [11]): 20 µg/mL |
| CCCCCOc1c(OC)cc(NC(C)CCCNC(C)CCCNC(C)CCCNC(C)CCCN)c2nccc(CC)c12.Cl (configuration not stated) | 11 µg/mL | > 54 | > 23.8 µg/mL | > 23.8 µg/mL | inactive | inactive | 5.6 µg/mL | 10 µg/mL | 10 µg/mL | inactive | 3.1 µg/mL | 7 µg/mL | 0.44 µg/mL | 0.42 µg/mL | inactive | inactive | > 23.8 µg/mL | > 23.8 µg/mL | 11.2 µM | > 56.6 | MBC (Staphylococcus aureus [1]): 20 µg/mL; MIC (Staphylococcus aureus [1]): 20 µg/mL; Activity [6]: inactive; IC50 (BT-549): > 23.8 µg/mL; IC50 (LLC-PK1): > 23.8 µg/mL; IC50 [10]: 17.8 µg/mL; MIC [10]: 20 µg/mL; Activity (Escherichia coli): inactive; Activity (Candida albicans): inactive; IC50 (Staphylococcus aureus [11]): 9.8 µg/mL; MBC (Staphylococcus aureus [11]): 20 µg/mL; MIC (Staphylococcus aureus [11]): 20 µg/mL |
| CCN(CC)CCCC(C)Nc1ccnc2cc(Cl)ccc12 (configuration not stated) [CHLOROQUINE] | – | – | – | – | – | – | – | – | – | – | – | – | – | – | – | – | – | – | 80 µM | – | – |
| COc1cc(NC(C)CCCNC(C)CCCNC(C)CCCNC(C)CCCN)c2nc(C(C)(C)C)ccc2c1.Cl (configuration not stated) | 10 µg/mL | > 34 | > 23.8 µg/mL | > 23.8 µg/mL | inactive | 100% | 10 µg/mL | 20 µg/mL | 20 µg/mL | inactive | 1.6 µg/mL | 7.3 µg/mL | 0.7 µg/mL | 0.56 µg/mL | inactive | inactive | > 23.8 µg/mL | > 23.8 µg/mL | 10.2 µM | > 42.5 | Activity (Plasmodium berghei [12]): 100%; MBC (Staphylococcus aureus [1]): 20 µg/mL; MIC (Staphylococcus aureus [1]): 20 µg/mL; Activity (Plasmodium berghei [13]): Active; Activity (Plasmodium berghei [14]): 100%; Activity (Plasmodium berghei [15]): 100%; IC50 (BT-549): > 23.8 µg/mL; IC50 (LLC-PK1): > 23.8 µg/mL; IC50 [10]: 15 µg/mL; MBC [10]: 20 µg/mL; MIC [10]: 20 µg/mL; Activity (Escherichia coli): inactive; Activity (Candida albicans): inactive |
| C[C@@H]1[C@H](O)[C@@H](C)/C=C/C=C/C=C/C=C/C=C/C=C/C=C/[C@H](O[C@@H]2O[C@H](C)[C@@H](O)[C@H](N)[C@@H]2O)C[C@@H]2O[C@](O)(C[C@@H](O)C[C@@H](O)[C@H](O)CC[C@@H](O)C[C@@H](O)CC(=O)O[C@H]1C)C[C@H](O)[C@H]2C(=O)O [AMPHOTERICIN B] | – | – | – | – | – | – | – | 1.5 µg/mL (≈ 1.62 µM) | – | – | – | 0.35 µg/mL (≈ 0.379 µM) | – | – | – | – | – | – | – | – | MFC (Nakaseomyces glabratus): 0.625 µg/mL (≈ 0.676 µM); MIC (Nakaseomyces glabratus): 0.31 µg/mL (≈ 0.335 µM) |
